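All cell lines were grown in 96-well plates and treated with compound for 48 hours. Here, GI50 denotes the concentration required for 50% inhibition of growth.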 Activity calls are given as the source filed them. No stated cut-off is given here; in the data, active = GI50 up to about 1.1 µM and inactive = higher.

Test systems include CAKI-1; CCRF-CEM; HCT-116; HCT-15; KM12; OVCAR-5; RPMI-8226; RXF 393; SF-268; SK-OV-3; TK-10; U-251; UACC-257; UO-31; SR.
What all share (test): NCI anticancer screen, dose series, 48 h

In the case of `COc1ccc(OC)c(/C=C2\CCc3ccccc3C2=O)c1`, the GI50 in the assay on CAKI-1 is 4.65 µM (inactive); in the assay with CCRF-CEM it was 2.33 µM (inactive); in the assay with HCT-116, 6.78 µM (inactive); in the assay with HCT-15 it was 3.91 µM; in the assay with KM12, 3.05 µM (inactive); in the assay with OVCAR-5, 4.14 µM (inactive). The GI50 in the assay with RPMI-8226 is 3.6 µM (inactive); in the assay on RXF 393, 1.76 µM (inactive); with SF-268 it was 4.84 µM (inactive); with SK-OV-3, 2.58 µM (inactive); in the assay with TK-10, 5.16 µM (inactive); in the assay with U-251 it was 3.3 µM (inactive).

For `O=C(C#Cc1ccccc1)Nc1ccccc1CC(c1c[nH]c2ccccc12)c1c[nH]c2ccccc12`, the GI50 in the assay with CAKI-1 was 16.9 µM (inactive); with CCRF-CEM, 3.3 µM (inactive); with HCT-15, 7.5 µM; with KM12, 14.7 µM (inactive); in the assay with RPMI-8226, 3.52 µM (inactive); in the assay with RXF 393, 3.02 µM (inactive). The GI50 in the assay on SF-268 was 25.4 µM (inactive); in the assay on SK-OV-3, 33.2 µM (inactive); in the assay on TK-10 it was 31.5 µM (inactive); in the assay on UACC-257, 23.8 µM (inactive); in the assay on UO-31, 13.5 µM (inactive).

As to `CCC1NCC(=O)c2c1[nH]c1ccccc21` (configuration not stated), the GI50 in the assay on CAKI-1 was > 100 µM (inactive); with CCRF-CEM, > 100 µM (inactive); in the assay with HCT-116 it was > 100 µM (inactive); with HCT-15, greater than 100 µM; with KM12, > 100 µM (inactive); in the assay on OVCAR-5, > 100 µM (inactive). Besides, the GI50 with RPMI-8226, with SF-268, in the assay with SK-OV-3, with SR, in the assay on TK-10 and in the assay on U-251 was > 100 µM (inactive) throughout. Further, the GI50 in the assay on UACC-257 and in the assay on UO-31 was > 100 µM (inactive) in each case.

For `CCOc1ccc(O)cc1[P+](c1ccccc1)(c1ccccc1)c1ccccc1`, the GI50 with CAKI-1 is 8.24 µM (inactive); in the assay on CCRF-CEM it was 1.56 µM (inactive); in the assay on HCT-116, 2.19 µM (inactive); in the assay with KM12, 1.64 µM (inactive); with OVCAR-5, 2.66 µM (inactive); with RPMI-8226 it was 3.5 µM (inactive). Further, the GI50 in the assay on RXF 393 is 3.59 µM (inactive); in the assay with SF-268, 5.2 µM (inactive); in the assay with SK-OV-3, 6.53 µM (inactive); in the assay with TK-10, 3.43 µM (inactive); with U-251 it was 2.54 µM (inactive); in the assay on UACC-257, 0.647 µM (active). Also, in the assay on UO-31, the GI50 is 17.4 µM (inactive).

Consider `C/C(=N\N=C(\N)S)c1ccc(Oc2ccccc2)cc1`, for which the GI50 is 5.04 µM (inactive) with CCRF-CEM; 10.2 µM (inactive) in the assay with HCT-116; 3.99 µM in the assay with HCT-15; 1.78 µM (inactive) in the assay with RPMI-8226; 10.3 µM (inactive) with RXF 393; 16.2 µM (inactive) with SK-OV-3. The GI50 in the assay on TK-10 is 4.09 µM (inactive); with U-251, 15.4 µM (inactive).

`Cc1c(O)c(=O)ccn1CCN`: the GI50 is > 100 µM (inactive) in the assay with CAKI-1; > 100 µM (inactive) in the assay on CCRF-CEM; > 100 µM (inactive) in the assay with HCT-116; greater than 100 µM with HCT-15; > 100 µM (inactive) in the assay on KM12; > 100 µM (inactive) in the assay on OVCAR-5. Besides, the GI50 in the assay on RPMI-8226, in the assay with RXF 393, in the assay with SF-268, with SK-OV-3, in the assay on TK-10 and with U-251 was > 100 µM (inactive) in each case. The GI50 with UACC-257 and with UO-31 was > 100 µM (inactive) in each case.

`COc1cc(C2c3cc4c(cc3[C@@H](NCCN3CCCCC3)C3COC(=O)[C@H]23)OCO4)cc(OC)c1O` (some centres not stated): the GI50 in the assay with CAKI-1 is 0.0918 µM (active); in the assay on CCRF-CEM, 0.0378 µM (active); in the assay on HCT-116, 1.15 µM (inactive); in the assay with HCT-15 it was 0.313 µM; in the assay with KM12, 1.01 µM (active); in the assay with OVCAR-5, 1.41 µM (inactive). Also, the GI50 in the assay with RPMI-8226 is 0.277 µM (active); in the assay with SF-268, 0.346 µM (active); in the assay on SK-OV-3, 0.098 µM (active); in the assay on TK-10, 1.65 µM (inactive); in the assay with U-251, 0.109 µM (active); with UACC-257, 2.78 µM (inactive). Also, the GI50 with UO-31 is 0.41 µM (active).

For the molecule `CCCOC(=O)C1CCC(=O)N1C(=O)C(C)Cl` (configuration not stated), the GI50 in the assay on CAKI-1 was > 100 µM (inactive); with CCRF-CEM it was > 100 µM (inactive); in the assay on HCT-116 it was > 100 µM (inactive); in the assay on HCT-15, greater than 100 µM; in the assay with KM12 it was > 100 µM (inactive); in the assay on OVCAR-5 it was > 100 µM (inactive). For the same molecule, the GI50 with RPMI-8226, in the assay with SF-268, with SK-OV-3, with TK-10, in the assay with U-251 and in the assay on UACC-257 was > 100 µM (inactive) throughout. Further, the GI50 with UO-31 is > 100 µM (inactive).

For the molecule `Cc1ccc(O)c(/N=N/c2ccc(S(=O)(=O)O)cc2)n1`, the GI50 with CAKI-1 was > 100 µM (inactive); with CCRF-CEM it was > 100 µM (inactive); in the assay with HCT-116, > 100 µM (inactive); in the assay on HCT-15, greater than 100 µM; in the assay with RPMI-8226 it was > 100 µM (inactive); in the assay with RXF 393 it was > 100 µM (inactive). Moreover, the GI50 in the assay on SF-268, with SK-OV-3, in the assay on TK-10, in the assay on U-251 and in the assay on UO-31 was > 100 µM (inactive) each time.

For `CCN(CC)c1ccc(C2N3CCCCC3[C@@H]3c4[nH]c5ccccc5c4CCN23)cc1` (some centres not stated), the GI50 with CAKI-1 is 74.3 µM (inactive); in the assay with CCRF-CEM it was 16.3 µM (inactive); with HCT-116, 16.1 µM (inactive); with HCT-15, 34.8 µM; in the assay with OVCAR-5 it was 51.3 µM (inactive); with RPMI-8226 it was 12.8 µM (inactive). Also, the GI50 with RXF 393 is 15.8 µM (inactive); with SF-268 it was 22.1 µM (inactive); with SK-OV-3, 69.7 µM (inactive); with TK-10 it was 27.2 µM (inactive); in the assay with U-251 it was 29.6 µM (inactive); with UACC-257 it was 27.7 µM (inactive). In addition, the GI50 with UO-31 was 27 µM (inactive).

For the molecule `Cc1ccc2nc(NC(=O)C(=O)CC(=O)c3cccc4ccccc34)sc2c1`, the GI50 was 22.2 µM (inactive) in the assay with CAKI-1; 30.8 µM (inactive) with CCRF-CEM; 59.2 µM with HCT-15; 29.1 µM (inactive) in the assay on KM12; > 100 µM (inactive) in the assay on OVCAR-5; 91.8 µM (inactive) in the assay on RPMI-8226. For the same molecule, the GI50 is 32.6 µM (inactive) with SF-268; 19.2 µM (inactive) with SK-OV-3; 24.1 µM (inactive) in the assay with TK-10; 22 µM (inactive) in the assay on U-251; 27.2 µM (inactive) in the assay on UACC-257; > 100 µM (inactive) in the assay with UO-31.

As for `COc1ccc(OC)c(NC(=O)C2=C(C)NC(C)=C(C(=O)Nc3cc(OC)ccc3OC)C2c2ccco2)c1`, the GI50 with CAKI-1 was 89.5 µM (inactive); in the assay with CCRF-CEM it was > 100 µM (inactive); with HCT-116, > 100 µM (inactive); in the assay with HCT-15, greater than 100 µM; in the assay with KM12, > 100 µM (inactive); in the assay with OVCAR-5, > 100 µM (inactive). Besides, the GI50 is 63 µM (inactive) in the assay with RPMI-8226; > 100 µM (inactive) in the assay on SF-268; > 100 µM (inactive) with SK-OV-3; 64.6 µM (inactive) in the assay with SR; > 100 µM (inactive) in the assay on TK-10; > 100 µM (inactive) with U-251. Moreover, the GI50 in the assay on UO-31 was > 100 µM (inactive).

For the molecule `CC(N)C(=O)c1ccc(O)cc1` (configuration not stated), the GI50 in the assay on CAKI-1 is > 100 µM (inactive); in the assay on CCRF-CEM, > 100 µM (inactive); in the assay on HCT-116, > 100 µM (inactive); in the assay on HCT-15 it was greater than 100 µM; with KM12 it was > 100 µM (inactive); in the assay with OVCAR-5 it was > 100 µM (inactive). Further, the GI50 in the assay on RPMI-8226, with RXF 393, in the assay on SF-268, with SK-OV-3, in the assay on TK-10 and in the assay on U-251 was > 100 µM (inactive) throughout. In addition, the GI50 in the assay on UACC-257 and in the assay on UO-31 was > 100 µM (inactive) each time.

`COC(=O)CC(C(C(=O)OC)C(=O)OC)N1C(=O)OC(c2ccccc2)C1c1ccccc1` (configuration not stated): the GI50 was 19.3 µM (inactive) in the assay with CAKI-1; 63.1 µM (inactive) in the assay on CCRF-CEM; 95.9 µM (inactive) in the assay on HCT-116; 53.6 µM with HCT-15; > 100 µM (inactive) with KM12; > 100 µM (inactive) in the assay with OVCAR-5. In addition, the GI50 in the assay on RPMI-8226 is 45.6 µM (inactive); with RXF 393, 74.5 µM (inactive); in the assay on SF-268 it was > 100 µM (inactive); with SK-OV-3, > 100 µM (inactive); with TK-10, > 100 µM (inactive); in the assay on U-251 it was 89.5 µM (inactive). Also, the GI50 in the assay with UACC-257 and in the assay with UO-31 was > 100 µM (inactive) each time.

`O=C(O)CNCc1c2ccccc2[n+]([O-])c2ccccc12`: the GI50 was > 100 µM (inactive) in the assay with CAKI-1; 34.3 µM (inactive) with CCRF-CEM; 20.2 µM (inactive) in the assay with HCT-116; 30.8 µM in the assay with HCT-15; 51.1 µM (inactive) in the assay on KM12; > 100 µM (inactive) with OVCAR-5. Also, the GI50 was 30.8 µM (inactive) with RPMI-8226; 43.8 µM (inactive) in the assay on SF-268; > 100 µM (inactive) with SK-OV-3; > 100 µM (inactive) in the assay with TK-10; > 100 µM (inactive) with U-251; > 100 µM (inactive) in the assay on UACC-257. In addition, the GI50 with UO-31 was 21.1 µM (inactive).

Turning to `O=C1CCC(=O)C12CCc1cccc(O)c12`, the GI50 was > 100 µM (inactive) with CAKI-1; greater than 100 µM in the assay on HCT-15; > 100 µM (inactive) with RPMI-8226; > 100 µM (inactive) in the assay on RXF 393; > 100 µM (inactive) with SF-268; > 100 µM (inactive) with SK-OV-3. Besides, the GI50 in the assay with TK-10, in the assay with U-251 and in the assay on UO-31 was > 100 µM (inactive) throughout.

Source of the values: ChEMBL document CHEMBL1201862, “PubChem BioAssay data set” (2004).
